From PMC8632880, “Mitochondrial proteome of mouse oocytes and cisplatin-induced shifts in protein profile” (Acta Pharmacologica Sinica, 2021)

Target: T1, GST-HS90A (Mus musculus, UniProt P07901)
T1 construct: gene Hsp90aa1; mouse Hsp90aa1 coding region in pGEX-4T-1, N-terminal GST fusion (tag kept), expressed in E. coli, purified, RED-NHS labelled
Experiment: microscale thermophoresis, RED-NHS labelled protein
Type: binding

`[NH2][Pt]([NH2])([Cl])[Cl]` [cisplatin] was tested, and the Kd was 5.47 ± 0.2 µM.
